# Measurements from patent publication US20020188323A1, “Methods, systems and devices for in vivo electrochemical production of therapeutic agents” (Remon Medical Technologies Ltd., priority 2001, published 2002).
# Columns and labels:
# cells = conditions: cited from earlier work
# Dissociation of HClO = assay type: physicochemical; conditions: −log Ka
# Description: The dissociation constant of HClO or, in other words, the equilibrium constant of the reaction HClO→H^++ClO^−[6] is 3.7×10^−8.
# Thus, the pKa of the reaction (i.e., −logka) equals 7.4. It is well known that when the pH of a solution equals the pKa of an acid dissolved therein, at all times, half of the acid molecules are dissociated. Since the blood pH value equals 7.4 half of the HClO is dissociated to H^+ and ClO^−.
# [1] = tested on: P388D1 murine macrophage-like tumor cells; conditions: cited from earlier work
# viruses and bacteria = conditions: cited from earlier work
# human endothelial cells [2] = assay: Effect of hypochlorite on human endothelial cells (Vissers et al.); assay type: cell-based
# Description: Hypochlorite and hydrogen peroxide are strong oxidants and are extensively used as antiseptic agents. Hydrogen peroxide is routinely used as an antiseptic agent in cases of external wounds. Hypochlorite is used as an antiseptic agent during, for example, dental root treatment. Both hypochlorous acid and hydrogen peroxide are well-known disinfectants. Hypochlorite is widely used for treatment of drinking water and as a bactericide. Both hypochlorite and hydrogen peroxide have cytotoxic activity at concentrations of several ppm. Vissers et al. tested the effect of hypochlorite on cells. They noticed a necrosis threshold of 20-40 nmole HClO per 1.2×10^5 cells, which translates approximately into 2 ppm concentration. Transient growth (proliferation) inhibition occurred at lower concentrations of 5 nmole, or about 0.2-0.3 ppm. See, “Hypochlorous acid causes caspase activation and apoptosis or growth arrest in human endothelial cells”, by Margret C. M. Vissers, Juliet M. Pullar and Mark B. Hampton, Biochem. J. (1999) vol. 344, pp. 443-449. Schraufenstatter et al. discuss the effect of hypochlorite on P388D1 murine macrophage-like tumor cells in mice. They show cell damage at 0.5-1 ppm hypochlorite and cell death from about 4 ppm hypochlorite and up. […]
# human endothelial cells [3] = conditions: cited from earlier work
SMILES,concentration with cytotoxic activity (cells),pKa (Dissociation of HClO),concentration causing cell damage [1],concentration causing cell death [1] [ppm],level required to kill all viruses and bacteria (viruses and bacteria) [ppm],transient growth (proliferation) inhibition as concentration (human endothelial cells [2]; equivalent of 5 nmole),necrosis threshold as concentration (human endothelial cells [2]; translated from nmole per 1.2×10^5 cells) [ppm],necrosis threshold (human endothelial cells [3]),transient growth (proliferation) inhibition (human endothelial cells [3]; lower concentrations than necrosis) [nmol]
OO [hydrogen peroxide],several,–,–,–,–,–,–,–,–
"OCl [hypochlorite, hypochlorous acid]",several,7.4,0.5-1 ppm,≥ 4,40,0.2-0.3 ppm,~2,20-40 nmole HClO per 1.2×10^5 cells,5
